{
  "source": "patent US20240209047A1",
  "about": "“GROWTH FACTOR CONJUGATES” (priority 2021, published 2024)",
  "key": {"[1]": {"system": "wound bed from a db/db mouse", "test": "Histopathological evaluation of wound bed of db/db mice after 11 days", "assay_type": "in vivo", "text": "FIG. 5A-C. Histopathological evaluations of a wound bed from a db/db mouse treated with/without crosslinked EGF over 11 days upon wounding. Scale Bars=500 μm. (A) Measurement of epithelial gap (blue line) and reepithelialization (red line). The epithelial gap was defined as the distance between the advancing edges of keratinocyte migration measured in millimeters. Length of reepithelialization was defined as the length of the layer of proliferating keratinocytes covering the wound area. This value was obtained by measuring s the distance between the free edge of the keratinocyte layer and the base where the cells were still associated with native, non-affected dermal tissue. The final value was the sum of distance in millimeters of both sides. H&E staining. Graphs indicate the mean f standard deviation of epithelial gap/re-epithelialized measure on surface wounds after 11 days with or without treatments. (B) Measurement of the fibrovascular dermal proliferation in the wound bed. Using picrosirius red stain under polarized light the bright collagen fibers of the wound bed are highlighted and automatically measured by the software. The final data is expressed as a percentage of outlined wound area comprised of collagen. Graphs indicate the mean f standard deviation of % collagen measured in surface wounds after 11 days with or without treatments. […] The inflammatory response was assessed using a semi-quantitative scoring system ranging from 0 to 4 where 0 indicates no inflammation, 1 indicates 0-25% of the wound area affected, 2 indicates 25-50% of the wound area affected, 3 indicates 50-75% of the wound area affected, and 4 indicates 75% of the wound area affected. H&E staining. Graphs indicate the mean±standard deviation of inflammation score. *p<0.05 compared with qEGF-6x, #p<0.05 compared with NoTx (t-test/Mann-Whitney rank sum test).\nFIG. 11. Percentage distribution of inflammatory cells in wound bed of diabetic mice at the end of 11 days. […] Results are mean f standard deviation of the ratio of positive cells to total number of cells in the wound bed.\n(§1) Clinical and histological analyses: All analyses were performed as described previously (Park S. A. et al., 2014). Briefly, wounds were clinically evaluated and imaged daily, and the wound area was measured using image analysis software, and percentage wound closure was calculated. Mice were humanely euthanized on day 11 and the entire wound bed was harvested. Histologic analyses was performed by a board-certified veterinary pathologist."}, "[2]": {"test": "Persistence of EGF in the wound bed by ELISA specific to anti-human EGF", "assay_type": "in vivo, mouse", "conditions": "for persistence of EGF in the wound bed: mass per mm^2 of tissue, in vivo", "protocol": "Detection of crosslinked EGF on dermal wounds: Persistence of CxEGF, qEGF and soluble EGF in the wound bed was determined using ELISA specific to anti-human EGF. Mice were euthanized at each time point and the wound bed was harvested. The tissue was digested using 7.5 Units/ml collagenase in the presence of 1 μM dithiothreitol (DTT) over 2 h at 37° C. This was centrifuged at 14000 RPM and the supernatant following which ELISA was performed. Specificity of the ELISA was verified using mouse recombinant EGF. Amount of EGF (mg) measured on the wound bed was expressed per surface area (mm^2) of the tissue.\nThe feasibility to tether sulfo-SMCC modified nanospheres to graft tissue was first evaluated (FIG. 9). Full thickness splinted wounds (8 mm in diameter) were created on heterozygous (db+/−;BKS.Cg-m+/+Leprdb) mouse as described above. Wound surfaces were treated with a reducing agent (tris(2-carboxyethyl)phosphine; TCEP) to break the disulfide bonds. The crosslinkers and reducing agents were used at non-toxic doses (FIG. 10). […] Immediately after the treatment, wounds were covered with a semi-occlusive dressing to minimize scab formation (Park Shin Ae et al., 2014). Wound beds were harvested at various time points and the presence of EGF attached on the surfaces was determined by ELISA (FIG. 3B). […] A gradual decrease in the amount of surface immobilized EGF was observed after 2 days. […] We note that the number of disulfide bonds available for anchoring CxEGF is difficult to ascertain in vivo and may thus contribute to the partial surface coverage. Secondary validation of the linkage chemistry was done using an in vitro model of the surface chemistry using (3 mercaptopropyl)trimethoxysilane (MPTS) or trimethoxy(propyl)silane (TPS) and maleimide by a reduction in contact angle and increased thickness of deposition (FIG. 3D). The mercapto group on the MPTS simulated sulfhydryl groups present on a native wound bed, and TPS was devoid of any functional group simulating a passivated wound surface."}, "HaCaT cells [3]": {"system": "HaCaT cells", "test": "HaCaT proliferation (MTT) on surfaces with covalently immobilized EGF", "assay_type": "cell-based, human", "experimental": "Human 433 immortalized kertinocytes (HaCaT) cells were cultured in growth medium containing 1% (v/v) serum (FBS). The proliferation rates are expressed as % control when cultured on surfaces [trimethoxy(propyl)silane (TPS) or 3-mercaptopropyl trimethoxysilane (3-MPTS)] immobilized with EGF. As positive control, cells were also cultured in the growth medium containing 10% 437 (v/v) FBS. ***p<0.001, one-way ANOVA followed by Dunnett's multiple comparison test compared with control cultures (cells cultured in media with 1% serum).\nIn vitro surface modification: An in vitro model of the wound surface was generated by silanizing glass coverslips with either trimethoxy(propyl)silane (TPS) or 3-mercaptopropyl trimethoxysilane (3-MPTS). Disulfide bonds (if any) on the surface of the silanated coverslips were reduced using 10 μM tris(2-carboxyethyl)phosphine (TCEP) for 10 min to generate an abundance of —SH bonds. These exposed —SH groups were used to covalently immobilize EGF.\nMeasuring bioactivity in vitro: Human immortalized kertinocytes (HaCaT cells) were plated on unmodified glass surfaces, or on surfaces covalently immobilized with EGF, or on surfaced with quenched EGF, in Dulbeccos' modified Eagle's medium (DMEM) supplemented with 1% fetal bovine serum and proliferation was determined after 5 days using the MTT assay (Raghunathan et al., 2013). […]"}, "[4]": {"system": "full thickness splinted wounds (8 mm diameter) of db/db mice", "test": "Wound closure of full thickness splinted dermal wounds in diabetic mice", "assay_type": "in vivo, mouse", "conditions": "for percentage wound closure: treated 6 times over 11 days (every other day)", "text": "In vivo studies: All procedures adhered to the recommendations in the Guide for the Care and Use of Laboratory Animals of the National Institutes of Health. The protocol for this experiment was approved by the Institutional Animal Care and Use Committee of University of California, Davis.\nCreating of full thickness splinted dermal wounds: Genetically diabetic 12 week old male mice (db/db; BKS.Cg-m+/+Leprdb; Jackson Laboratories, Bar Harbor, ME) were used for this study. […] 8 mm Full thickness wounds were created on the dorsal surface of db/db mice as described previously (Park S. A. et al., 2014).\nMice in the sEGF group received native EGF (300 ng) dissolved in PEG immediately after wounding and twice daily until day 10. The NoTx group remained without any treatment through the study period. All wounds were dressed using a sterile coverslip and a semi-occlusive bandage.\nas §1"}, "deep-partial burn wounds": {"system": "deep-partial burn wounds", "conditions": "cited from earlier work"}, "HaCaT cells [5]": {"system": "HaCaT cells", "test": "HaCaT proliferation with soluble EGF", "assay_type": "cell-based, human", "conditions": "1% FBS, 0-80 ng/ml soluble EGF", "protocol": "FIG. 8. In vitro proliferation rates of spontaneously immortalized human keratinocytes (HaCaT cells), cultured in growth medium containing 1% (v/v) serum (FBS), treated with 0-80 ng/ml soluble EGF. Results are mean f standard deviation, ***p<0.001 (ANOVA followed by Dunnett's multiple comparison test) compared with control cultures.\nEGF is a key growth factor involved in triggering wound re-epithelialization, one of the critical early events in wound closure, whose prolonged exposure is required for eliciting a cellular response (Bennett N. T. and Schultz G. S., 1993, Bennett N. T. and Schultz G. S., 1993, 171 Gipson and Inatomi, 1995, Jost et al., 2000). […] A full thickness splinted wound (8 mm in diameter) was created on each heterozygous (db+/−; BKS.Cg-m+/+ Leprdb) mouse as described previously (Park Shin Ae et al., 2014). […] Functional bioactivity of EGF was determined in vitro using spontaneously transformed keratinocytes (HaCaT cell line) from histologically normal skin (FIG. 8). As a possible contributor to the lack of significant positive effect, we observed a rapid loss of recombinant human EGF from the surface of wounds within 1 h of topical administration (FIG. 2B). […]"}, "[6]": {"conditions": "ratio of positive cells to total cells, after 11 days"}, "[7]": {"conditions": "30 ng crosslinked onto TCEP treated wound surface"}, "[8]": {"conditions": "6x, every other day over 11 days"}},
  "note": "Entries after “also recorded” stand apart in the source; their conditions may differ.",
  "data": [
    {"substance": "CxEGF: Human recombinant EGF conjugated with sulfo-SMCC, covalently crosslinked onto TCEP-reduced wound surface", "values": [
      {"measurement": "inflammation (semi-quantitative score 0 to 4)", "setting": "[1]; 6x, day 11, H&E", "value": "reduction in inflammation"},
      {"measurement": "epithelial gap", "setting": "[1]; 6x, day 11, H&E, versus qEGF, no treatment or soluble EGF", "value": "dramatic decreases in epithelial gap"},
      {"measurement": "inflammation (semi-quantitative score 0 to 4)", "setting": "[1]; 6x, day 11, H&E, listed as Cross linked EGF", "value": "elicited less inflammation"},
      {"measurement": "collagen content", "setting": "[1]; 6x, day 11, picrosirius red", "value": "comparable collagen content"},
      {"measurement": "F-480 positive macrophages in wound bed", "setting": "[1]; [6]", "value": "No statistically significant differences"},
      {"measurement": "GR1 positive granulocytes in wound bed", "setting": "[1]; [6]", "value": "No statistically significant differences"},
      {"measurement": "apparent surface coverage", "setting": "[2]; [7]", "value": 2, "unit": "pg/mm^2"},
      {"measurement": "sustained surface immobilization of the growth factor", "setting": "[2]; [7]", "value": 2, "unit": "days"},
      {"measurement": "persistence of EGF in the wound bed", "setting": "[2]; ELISA", "value": "increases persistence of EGF on the wound surface"},
      {"measurement": "apparent surface coverage (equivalent)", "setting": "[2]; equivalent of the pg/mm^2 value", "value": "1.99×10^8 molecules/mm^2"},
      {"measurement": "surface coverage as fraction of a theoretical monolayer of EGF", "setting": "[2]; theoretical monolayer 213.6 pg/mm^2", "value": "1/100"},
      {"measurement": "proliferation rate (% control)", "setting": "HaCaT cells [3]; HaCaT, 1% FBS, TPS or 3-MPTS surfaces immobilized with EGF", "value": "strongly promotes proliferation"},
      {"measurement": "increase in cell proliferation", "setting": "HaCaT cells [3]; immobilized on MPTS or TPS coated glass, MTT, after 3 days of treatment", "value": "over 2 fold"},
      {"measurement": "wound closure rate (reduction of wound radii)", "setting": "[4]; 1x, immobilization only once immediately after wounding", "value": "no significant effects on wound closure rate"},
      {"measurement": "wound closure rate (decrease in wound radius per day)", "setting": "[4]; 3x, every 4 days", "value": "significantly higher wound closure rate"},
      {"measurement": "wound closure rate (decrease in wound radius per day)", "setting": "[4]; [8]", "value": "significantly higher wound closure rate"},
      {"measurement": "percentage wound closure", "setting": "[4]; db/db mice", "value": "significant acceleration of wound closure; also recorded: significantly improved wound healing"}
    ]},
    {"substance": "aFGF: topical recombinant human acidic fibroblast growth factor", "values": [
      {"measurement": "fully healed rate", "setting": "deep-partial burn wounds; deep-partial burn wounds, versus placebo", "value": 53.85, "unit": "%"},
      {"measurement": "mean healed time of the burn wounds", "setting": "deep-partial burn wounds; placebo 18.92±0.49, p=0.035", "value": "17.23±0.53"}
    ]},
    {"substance": "qEGF: s-SMCC conjugated EGF with its maleimide group quenched with β-mercaptoethanol (NSDSECPLSHDGYCLHDGVCMYIEALDKYACNCVVGYIGERCQYRDLKWWELR; Epidermal growth factor sulfo-SMCC, maleimide quenched with β-mercaptoethanol; UniProt P01133 971-1023, looked up) [reference compound]", "values": [
      {"measurement": "wound closure rate (decrease in wound radius per day)", "setting": "[4]; [8]", "value": "ineffective in altering wound healing rates"},
      {"measurement": "percentage wound closure", "setting": "[4]; db/db mice", "value": "NoTx group had a significantly higher percentage wound closure compared to the qEGF group"}
    ]},
    {"substance": "sEGF: Human recombinant EGF (ProspecBio) dissolved in 5% (w/v) polyethylene glycol, applied topically", "values": [
      {"measurement": "persistence of EGF in the wound bed", "setting": "[2]; ELISA", "value": "rapidly removed from wound surface"},
      {"measurement": "loss of recombinant human EGF from the surface of wounds after topical administration", "setting": "[2]; topical administration, wound surface, ELISA", "value": "≤ 1", "unit": "h"},
      {"measurement": "in vitro proliferation rate", "setting": "HaCaT cells [5]", "value": "increased cell proliferation"},
      {"measurement": "percentage wound closure / epithelial closure", "setting": "[4]; soluble EGF 300 ng topically twice daily, over 11 days, db/db mice", "value": "did not significantly alter wound healing or epithelial closure; also recorded: did not promote epithelial closure"}
    ]}
  ]
}
